Experimental data published in patent US4374248A, “3,4-Disubstituted-1,2,5-thiadiazole-1-oxide compounds” (Bristol-Myers Company, priority 1981, dated 1983).
Read-outs that look alike come from different tables or passages of the source.

Legend:
[1] = tested on: Gastric Acid Output; assay: Gastric Antisecretory Activity in the Two Hour Pylorus Ligated (Shay) Rat; type: in vivo, rat (Male Long Evans); conditions: 2 h
Text: Med. Res., 3, 86 (1975). […] One of the standard animal models for determining gastric antisecretory activity of histamine H2 -antagonists is the pylorus ligated rat.
Determination of Gastric Antisecretory Activity in the Two Hour Pylorus Ligated (Shay) Rat
The pyloric ligation procedure in the rat was designed by Shay et al., Gastroenterology, 5, 53 (1945) for the study of perforating gastric ulcers; however, as the method became known, it was also employed as a means of studying rat gastric secretion, Shay et al., Gastroenterology, 26, 906 (1954), Brodie, D, A. Am. J. Dig. Dis., 11, 231 (1966). A modification of this procedure is presently used to evaluate compounds for gastric antisecretory activity.
Male Long Evans rats, 280-300 gm., are used. The animals are placed in individual cages and fasted for 24 hours with free access to water. Under ether anesthesia, the stomach is reached through a midline incision, and a cotton-thread ligature is placed around the pylorus. After wound closure, ether administration is stopped and the test compound or control vehicle is administered either intraperitoneally or subcutaneously in a volume of 1 ml./kg. All compounds are solubilized with one equivalent of HCl and brought to the proper volume with water. The animals are returned to their cages from which the water bottles have been removed and two hours later are sacrificed with ether. The stomach is removed and the two hour gastric collection is drained into a graduated test tube for volume determination. Titratable acidity is measured by titrating a one ml. sample to pH 7.0 with 0.02 NaOH, using an Autoburet and electrometric pH meter (Radiometer). Titratable acid output is calculated in microequivalents by multiplying the volume in milliliters by the acid concentration in milliequivalents per liter. The percent inhibition of acid output is calculated as follows [formula] At least five rats are used at each dosage level, and a minimum of three dosage levels are utilized for determination of a dose response curve. Initially this test was conducted utilizing intraperitoneal injection of the test compound or control vehicle. […] The route of administration of each compound is noted in Table 1.

[2] = tested on: gastric secretion; conditions: cited from earlier work
[3] = in vivo; cited from earlier work
[4] = tested on: H2 -receptor; conditions: cited from earlier work
[5] = clinical; cited from earlier work
[6] = tested on: peptic ulcer disease; conditions: Gray et al., Lancet, 1, 8001 (1977); cited from earlier work
[7] = sc, s.c. administration, two hour gastric acid output, 95% confidence limits in parenthesis, read-out: ED50

SMILES | ED50 [1, 7] | further results
CNC1=NS(=O)(=O)N=C1NCCSCc1ccc(CN(C)C)o1 [11 B] |  | ED50 ([1]; ip, i.p. administration, two hour gastric acid output, 95% confidence limits in parenthesis, read-out: ED50): 0.69 µmol/kg
CN(C)Cc1ccc(CSCCNC2=NS(=O)(=O)N=C2NCCSCc2ccc(CN(C)C)o2)o1 [11 C] | 0.2 µmol/kg | 
CNCc1ccc(CSCCNC2=NS(=O)(=O)N=C2NC)o1 [20 A] | 1.15 µmol/kg | 
CNC1=NS(=O)(=O)N=C1NCCCOc1cccc(CN2CCCC2)c1 [144 a] | 0.095 µmol/kg | 
CNC1=NS(=O)(=O)N=C1NCCCOc1cccc(CN2CCC(C)CC2)c1 [144 b] | 0.025 µmol/kg | 
CNC1=NS(=O)(=O)N=C1NCCCOc1cccc(CN2CCCCCC2)c1 [144 c] | 0.14 µmol/kg | 
CNC1=NS(=O)(=O)N=C1NCCCOc1cccc(CN2CCOCC2)c1 [144 d] | 0.91 µmol/kg | 
Nc1n[s+]([O-])nc1NCCCOc1cccc(CN2CCCC2)c1 (stereo not shown) [145 a] | 0.056 µmol/kg | 
CC1CCN(Cc2cccc(OCCCNc3n[s+]([O-])nc3N)c2)CC1 (stereo not shown) [145 b] | ~0.06 µmol/kg | 
Nc1n[s+]([O-])nc1NCCCOc1cccc(CN2CCCCCC2)c1 (stereo not shown) [145 c] | 0.025 µmol/kg | 
Nc1n[s+]([O-])nc1NCCCOc1cccc(CN2CCCCCCC2)c1 (stereo not shown) [145 d] | 0.05 µmol/kg | 
NC1=NS(=O)(=O)N=C1NCCCOc1cccc(CN2CCCC2)c1 [146 a] | 0.023 µmol/kg | 
NC1=NS(=O)(=O)N=C1NCCCOc1cccc(CN2CCOCC2)c1 [146 d] | 0.28 µmol/kg | 
CNC(=S)NCCCCc1cnc[nH]1 [Burimamide] |  | inhibition of gastric secretion ([2]; animals and man): inhibits gastric secretion in animals and man; oral absorption [3]: poor
CNC(=NC#N)NCCSCc1nc[nH]c1C [Cimetidine] |  | ED50 [1]: ~9 µmol/kg; H2 -antagonist potency/effectiveness relative to another antagonist [4]: as effective an H2 -antagonist as metiamide; toxicity (agranulocytosis) [5]: without producing agranulocytosis; therapeutic effect in peptic ulcer disease [6]: effective therapeutic agent in the treatment of peptic ulcer disease
CN(C)Cc1ccc(CSCCNC2=NS(=O)(=O)N=C2N(C)C)o1 [Example 28, 3-{2-[(5-Dimethylaminomethyl-2-furyl)methylthio]ethylamino}-4-dimethylamino-1,2,5-thiadiazole 1,1-dioxide] | 1.39 µmol/kg | 
CN(C)Cc1ccc(CSCCNC2=NS(=O)(=O)N=C2N2CCCCC2)o1 [Example 102, 3-{2-[(5-Dimethylaminomethyl-2-furyl)methylthio]ethylamino}-4-piperidino-1,2,5-thiadiazole 1,1-dioxide] | ~15 µmol/kg | 
CCCCCCCCCCCCNC1=NS(=O)(=O)N=C1NCCSCc1ccc(CN(C)C)o1 [Example 106, 3-{2-[(5-Dimethylaminomethyl-2-furyl)methylthio]ethylamino}-4-dodecylamino-1,2,5-thiadiazole 1,1-dioxide] | ~80 µmol/kg | 
CNC(=S)NCCSCc1nc[nH]c1C [Metiamide] |  | oral activity ([2]; in man, oral): orally active in man; H2 -antagonist potency/effectiveness relative to another antagonist [4]: more potent than burimamide; toxicity (agranulocytosis) [5]: toxicity (agranulocytosis)
